US10519179B2, “Highly efficient NRF2 activators-co-releasing molecule hybrids, their use in the treatment of inflammatory or cardiovascular diseases and their process of preparation” (Centre National de la Recherche Scientifique, priority 2015, dated 2019)
“Also recorded” adds a separate entry of the source. Structures can show the parent of a compound that is named as a salt.

Key:
human THP-1 cells [1] = assay: cytotoxicity (LDH assay) in THP-1 cells; type: cell-based; conditions: 24 h, increasing concentrations, up to 10 μM
Procedure: (§1) Cytotoxicity was evaluated in THP-1 cells and H9c2 cardiomyocytes 24 h after incubation with increasing concentrations of compound C.
(§2) Human monocytes (THP-1 cells) were cultured in RPMI 1640-Glutamax medium supplemented with 1% penicillin/streptomycin, 1% sodium pyruvate and 10% fetal bovine serum (RPMIc). Cells at confluence were washed with PBS and treated with compound C at different concentrations and for different periods of time according to the experimental protocol. Compound C was dissolved in DMSO at 0.1% as a final concentration in complete medium.
(§3) Cell viability was assessed using the previously described LDH assay.

Nrf2 [2] = assay: Nrf2 expression in human THP-1 cells; type: cell-based
Procedure: as §2, with “concentrations” for “concentrations and”, “6 h” for “different periods of time”

Nrf2 [3] = assay: nuclear expression of Nrf2 in BV2 microglia (Western blot); type: cell-based, mouse; conditions: cells and concentration not given
Procedure: (§4) Cells were grown in an atmosphere of 5% CO2 at 37° C. in either 75 cm^2 flasks, 100 mm diameter Petri dishes, 6- or 24-well plates containing medium supplemented with 10% fetal bovine serum (Lonza) and penicillin (100 U·mL^−1)/streptomycin ([…]; Life Technologies). BV2 mouse microglial cells were grown in RPMI-1640 containing 2 g·L^−1 glucose and supplemented with 0.3 g·L^−1 1-glutamine.
BV2 microglia were incubated with 10 μM of hybrids for 2 h to assess nuclear translocation of Nrf2. Nuclear fractions were isolated using a Nuclear Extract Kit from Active Motif (La Hulpe, Belgium), according to the manufacturer's instructions, and stored at −80° C. Protein concentrations were measured using a Pierce BCA Protein Assay kit (Thermo Scientific).
(§5) Whole cell lysates (20 μg protein/sample) were resolved on 12% acrylamide gels, respectively, and proteins transferred to polyvinylidene difluroride membranes (Millipore, Brussels, Belgium). […] Bands were detected with chemiluminescent substrates (Pierce ECL®, Thermo Scientific or RevelBIOt® Intense, Ozyme) and images captured using a G:Box F3 Imagery Station and GeneSys Software (Syngene, Cambridge, UK). […]

HO-1 [4] = assay: HO-1 protein expression in BV2 microglia (Western blot); type: cell-based, mouse; conditions: cells and concentration not given
Procedure: as §4
To determine HO-1 protein expression, BV2 microglia were incubated with 10 μM hybrids (compounds) for 6 h. […] Protein concentrations were measured using a Pierce BCA Protein Assay kit (Thermo Scientific).
as §5

HO-1 [5] = assay: HO-1 protein expression in human THP-1 cells; type: cell-based
Procedure: as §2, with “concentrations” for “concentrations and”, “6 h” for “different periods of time”

human THP-1 cells [6] = assay: CO delivery to human THP-1 cells loaded with COP-1; type: cell-based; conditions: 10 μM, 15 min at 37° C.
Procedure: To detect whether the compounds delivered CO to cells, human THP-1 cells were initially suspended in Dulbecco Phosphate Buffer Solution (+Ca, +Mg; Gibco® Cell Culture, Life Technologies) and then treated with compounds at a concentration of 10 μM for 15 min at 37° C. in 5 ml polypropylene round-bottom tubes (BD Falcon, Dominique Dutscher). Cells were then incubated for 30 min with 1 μM COP-1. Intracellular fluorescence of COP-1 was measured using a CyAnTM ADP LX7 Analyzer (Beckman Coulter) as previously reported.

HO-1 [7] = assay: HO-1 protein expression in H9c2 cardiomyocytes; type: cell-based, rat; conditions: 1 μM to 10 μM, 6 h or 24 h, 20% or 5% O2
Procedure: The assessment of HO-1 induction by western blotting was performed as previously (Example 4.1). H9C2 cells rat cardiomyocytes were cultured in Dubelcco's Modified Eagle Medium containing: glucose 4.5 g/l, L-glutamine 2 mM, pyruvate) supplemented with fetal bovine serum (FBS) 10%, a mixture of penicillin (10,000 IU/ml)/streptomycin (10 mg/ml) (Gibco Life Technologies) and sodium Pyruvate 1% (Gibco Life Technologies). Cells were grown and subcutlured either in a normal incubator at 20% O2 or in a dedicated chamber in which the O2 levels was kept constantly at 5%, a value which reflects more closely the O2 concentrations found in vivo. For the adaptation of cells at 5 O2, cells were grown and passaged at least twice before conducting any experiment.
H9c2 cardiomyocytes were then incubated with increasing concentration of compound C (1 μM to 10 μM) for 6 h or 24 h either at 20% or 5% O2.

[8] = CO release in COP-1 fluorescence assay in buffer; type: physicochemical; conditions: in vitro conditions described in the examples, not specified further
Procedure: The release of CO from hybrids was assessed using COP-1, a fluorescent probe sensitive to CO. The fluorescence intensity of COP-1 (2 μM, Δex=475 nm) in buffer was measured in a cuvette to obtain a background fluorescence spectrum and spectra were then recorded immediately after addition of 50 μM tested compounds. The mean fluorescence intensity (MFI) of 3 independent reading was calculated using the fluorescence intensity values recorded at 507 nm after 60 min.

HO-1 [9] = assay: cardiac HO-1 mRNA expression in mice after oral gavage; type: in vivo; conditions: 40 mg/kg oral gavage, 6 h
Procedure: (§6) FIG. 11 represents blood HbCO levels in vivo after compound C were administered to mice by oral gavage (FIG. 11A); mRNA expression of Nrf2 dependent genes (HO-1 and NQO-1) in the heart of mice after HbCO after administration of compound C (40 mg/kg) by oral gavage (FIG. 11B).

[10] = blood HbCO levels in mice after oral gavage; type: in vivo; conditions: oral gavage, 1, 3 and 6 hours after administration
Procedure: Male C57 BL/6J mice were used for all experiments (Janvier Labs, France). Animals received at 8 weeks of age were placed on a standard diet and allowed to acclimatize for 2 weeks on a 12 hr light/dark cycle. All experiments were performed in compliance with INSERM guidelines for the use of animals and approved by the institutional review board at Paris-Est Creteil Val de Marne University. Mice were administered by oral gavage with a single dose of the following: 1) 200 μl of sesame oil (vehicle, control group); 2) Compound A (3 mg in 200 μl sesame oil); 3) Compound B (3 mg in 200 μl sesame oil).
Mice were sacrificed 6 hr after treatment by cervical dislocation. Livers, lungs, hearts and brains were excised and snap frozen for western blot analysis. Tissue samples were homogenized in lysis buffer (150 mM sodium chloride, 1.0% Triton X-100, 0.5% sodium deoxycholate 0.1% sodium dodecyl sulphate, 50 mM Tris, pH 8.0). Lysates were centrifuged for 20 min at 15,000 g at 4° C. and supernatants were collected and stored at −80° C. for further analysis. […] The release of CO from compounds of the invention was assessed spectrophotometrically by measuring the conversion of deoxyhemoglobin to carbonmonoxy hemoglobin (HbCO). […] The percent of HbCO was then calculated based on the absorbances at 420 and 432 nm with the reported extinction coefficients for mouse blood. […]

H9c2 cardiomyocytes = assay: cytotoxicity (LDH assay) in H9c2 cardiomyocytes; type: cell-based, rat; conditions: 24 h, 20% or 5% oxygen, concentrations used
Procedure: as §1
H9c2 cardiomyocytes were cultured as previously (Example 4.2).
as §3

IL-1β = IL-1β production in LPS-treated human THP-1 cells (ELISA); type: cell-based; conditions: 5 μM, 24 h
Procedure: IL-1β production was measured in the supernatants of human THP-1 cells treated with LPS (100 μg/ml) in the presence or absence of 5 μM comp. C, DMF or CORM-401. After 24 h incubation, the medium was collected and IL-1β levels quantified using an ELISA kit (R&D Systems) following the manufacturer's instructions.

NQO1 = assay: cardiac NQO1 mRNA expression in mice after oral gavage; type: in vivo; conditions: 40 mg/kg oral gavage, 24 h
Procedure: as §6

BV2 microglia cells = assay: reduced glutathione (GSH), DTNB colorimetric assay in BV2 microglia; type: cell-based, mouse; conditions: 10 μM
Procedure: The 5,5′ dithiobis-(2-nitrobenzoic acid) (DTNB) colorimetric assay was used for the measurement of reduced glutathione (GSH). Briefly, BV2 microglia cells were seeded in 6-well-plates and incubated with 10 μM hybrids and dimethyl fumarate (DMF, positive control) for 3, 6 and 24 h. At the end of the incubation period, cells were initially washed with phosphate buffers solution, then scraped in 600 μL of 2% (w/v) 5-sulposalicylic acid solution and transferred to a 1.5 ml microtube, and finally centrifuged for 5 min at 10,000×g. An aliquot of the supernatant (500 μl) was then reacted with 0.5 ml DTNB solution (0.3 M sodium phosphate buffer, 10 mM EDTA and 0.2 mM DTNB) and after 5 min the absorbance was read spectrophotometrically at 412 nm (extinction coefficient 14.3 mM^−1 cm^−1).

[11] = THP-1 cells, 6 h, different concentrations
[12] = identical concentrations (5 μM)

intracellular reduced glutathione (GSH) (BV2 microglia cells; 24 h)	Structure (SMILES)	toxicity toward human THP-1 cells (human THP-1 cells [1])	activation of Nrf2 (Nrf2 [2]; [11])	Nrf2 activation compared with CORM-401 and DMF (Nrf2 [2]; [12])	nuclear expression of Nrf2 (summary statement) (Nrf2 [3])	HO-1 protein expression (summary statement) (HO-1 [4])	concentration from which an increase in HO-1 protein expression starts (HO-1 [5]; THP-1 cells, 6 h)	HO-1 protein expression (HO-1 [5]; [11])	HO-1 activation compared with CORM-401 and DMF (HO-1 [5]; [12])	CO release in cells (intracellular COP-1 fluorescence) (human THP-1 cells [6])	HO-1 protein expression (HO-1 [7])	CO release (summary statement) [8]	cardiac HO-1 mRNA expression (HO-1 [9])	HbCO levels [10]	toxic effect toward H9c2 cardiomyocytes (H9c2 cardiomyocytes)	IL-1β production (IL-1β)	cardiac NQO1 mRNA expression (NQO1)	intracellular reduced glutathione (GSH) (BV2 microglia cells; 3 or 6 h)
–	COc1ccc(/C=C/C(=O)OCCN(C)C2=[S][Mn][S]2)cc1OC.[C-]#[O+].[C-]#[O+].[C-]#[O+].[C-]#[O+] [Compound C]	do not show significant toxicity	strongly promoted the activation of Nrf2	more potent than DMF and comparative compound CORM-401	two fold increase	two fold increase	1 µM	induction of HO-1 protein expression; also recorded: concentration-dependent increase in HO-1 protein expression	more potent than DMF and comparative compound CORM-401	significant and high amount of CO	induced an increase in HO-1 protein expression; also recorded: significant expression of HO-1	significant amount of CO	promotes an increase	promotes an increase in HbCO levels	does not cause any visible toxic effect	decreased IL-1β production	promotes an increase	–
significant raise	COC(=O)/C=C/C(=O)OC [DMF, dimethyl fumarate]	–	–	–	–	–	10 fold this concentration is not sufficient	–	–	–	–	–	–	–	–	no effect	–	raised the level of GSH from 6 h of treatment
–	CN(CC(=O)O)C(=S)[S-].[C-]#[O+].[C-]#[O+].[C-]#[O+].[C-]#[O+].[Mn] [CORM-401, reference compound]	–	–	–	–	–	10 fold this concentration is not sufficient	–	–	–	–	–	–	–	–	no effect	–	–
